The text below walks through data of patent US8088761B2, “Enzyme inhibitors” (Cancer Research Technology Limited, priority 2005, dated 2012).

A value given as a limit tells only on which side of the number the result lay.

The first assay deals with T1, Aurora-A (Homo sapiens, UniProt O14965).
T1 sequence (O14965 1-403): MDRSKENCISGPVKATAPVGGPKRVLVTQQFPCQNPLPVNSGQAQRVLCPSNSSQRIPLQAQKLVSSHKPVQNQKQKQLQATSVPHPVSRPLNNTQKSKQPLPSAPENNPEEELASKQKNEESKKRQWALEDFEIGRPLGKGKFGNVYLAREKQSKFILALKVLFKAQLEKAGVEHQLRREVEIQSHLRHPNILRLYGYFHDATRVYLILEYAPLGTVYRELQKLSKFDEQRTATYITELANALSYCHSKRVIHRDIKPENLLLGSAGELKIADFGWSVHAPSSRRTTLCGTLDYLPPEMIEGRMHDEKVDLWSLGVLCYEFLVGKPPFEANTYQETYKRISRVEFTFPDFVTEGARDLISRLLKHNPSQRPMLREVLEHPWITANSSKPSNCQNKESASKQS
Put plainly: Flashplate Aurora A enzyme inhibition assay. It counts as biochemical.
Details: not given
The protocol: Flashplate® Assay for Identification and Evaluation of Aurora-A Inhibitors
On this assay 384-well Basic Flashplate® (SMP400E, PerkinElmer) as solid assay platform was used. The plates were coated overnight at 4° C. with […] at 100 μg/ml in PBS buffer and used after being washed twice with PBS. 5 μl of compound in 2% DMSO was added to each well followed by 15 μl master mix of kinase buffer (50 mM Tris pH 7.5, 10 mM NaCl, 2.5 mM MgCl2, 1 mM […], 20 μM ATP, and 0.025 μCi/μl ^33P-ATP). Finally, 250 ng per well of Aurora-A enzyme was added. The plate was shaken for approximately 2 min on a flat-bed plate shaker (Wellmix, Denley, UK) and incubated for 2 hours at room temperature. The reaction was stopped by washing the plate twice on a 16-pin wash (ELX50 BioTek Instruments Ltd., Northstar, Bedford, UK) with 10 mM sodium pyrophosphate. The plate was then read on a TopCount-NX™ (PerkinElmer Life Sciences UK Ltd., Hounslow, UK).
Turning to `CN(C)c1ccc(-c2nc3c(N4CCN(C(=O)Nc5ccccc5)CC4)c(Br)cnc3[nH]2)cc1` [Example 39, 4-(6-Bromo-2-(4-(dimethylamino)phenyl)-3H-imidazo[4,5-b]pyridin-7-yl)-N-phenylpiperazine-1-carboxamide], the IC50 was less than 500 nM.

The same assay, now with this note: Flashplate assay; IC50 range; read-out: Aurora-A inhibition.
As to `Clc1cnc2[nH]c(-c3ccc(CN4CCOCC4)cc3)nc2c1N1CCN(Cc2cscn2)CC1` [Example 177, 4-(4-(6-Chloro-7-(4-(thiazol-4-ylmethyl)piperazin-1-yl)-3H-imidazo[4,5-b]pyridin-2-yl)benzyl)morpholine], the IC50 is less than 500 nM.

As for `COc1ccc(-c2nc3c(N4CCN(CC5CCC5)CC4)c(Br)cnc3[nH]2)cc1` [Example 149, 6-Bromo-7-(4-(cyclobutylmethyl)piperazin-1-yl)-2-(4-methoxyphenyl)-3H-imidazo[4,5-b]pyridine], the IC50 is less than 500 nM.

As for `Brc1cnc2[nH]c(-c3cccc(CN4CCOCC4)c3)nc2c1N1CCN(Cc2cccnc2)CC1` [Example 66, 6-Bromo-2-(3-morpholin-4-ylmethyl-phenyl)-7-(4-pyridin-3-ylmethyl-piperazin-1-yl)-3H-imidazo[4,5-b]pyridine], the IC50 is less than 500 nM.

On to `COc1ccc(C(=O)N2CCN(c3c(Cl)cnc4[nH]c(-c5ccc(N(C)C)cc5)nc34)CC2)cc1` [Example 18, (4-(6-Chloro-2-(4-(dimethylamino)phenyl)-3H-imidazo[4,5-b]pyridin-7-yl)piperazin-1-yl)(4-methoxyphenyl)methanone], for which the IC50 is 2000 to 10000 nM.

Consider `CN(C)c1ccc(-c2nc3c(N4CCN(Cc5c(F)cccc5Cl)CC4)c(Cl)cnc3[nH]2)cc1` [Example 16, 4-(6-Chloro-7-(4-(2-chloro-6-fluorobenzyl)piperazin-1-yl)-3H-imidazo[4,5-b]pyridin-2-yl)-N,N-dimethylaniline], for which the IC50 lay in the range of 500 to 2000 nM.

Consider `CCOC(=O)C1CC1c1nc2c(N3CCN(CC(=O)Nc4nccs4)CC3)c(Br)cnc2[nH]1` (stereo not shown) [Example 45, Ethyl 2-(6-bromo-7-(4-(2-oxo-2-(thiazol-2-ylamino)ethyl)piperazin-1-yl)-3H-imidazo[4,5-b]pyridin-2-yl)cyclopropanecarboxylate], for which the IC50 was in the range of 500 to 2000 nM.

Consider `CC(c1ccccc1)N1CCN(c2c(Br)cnc3[nH]c(-c4ccc(N5CCC(O)CC5)cc4)nc23)CC1` (stereo not shown) [Example 88, 1-(4-{6-Bromo-7-[4-(1-phenyl-ethyl)-piperazin-1-yl]-3H-imidazo[4,5-b]pyridin-2-yl}-phenyl)-piperidin-4-ol], for which the IC50 is less than 500 nM.

As to `CCN1CCN(c2c(Br)cnc3[nH]c(-c4ccc(N(C)C)cc4)nc23)CC1` [Example 47, 4-(6-Bromo-7-(4-ethylpiperazin-1-yl)-3H-imidazo[4,5-b]pyridin-2-yl)-N,N-dimethylaniline], the IC50 lay within 500 to 2000 nM.

As for `CC(C)c1nc(CN2CCN(c3c(Br)cnc4[nH]c(-c5ccc(CN6CCOCC6)cc5)nc34)CC2)co1` [Example 146, 4-(4-(6-Bromo-7-(4-((2-isopropyloxazol-4-yl)methyl)piperazin-1-yl)-3H-imidazo[4,5-b]pyridin-2-yl)benzyl)morpholine], the IC50 was less than 500 nM.

As for `CCNC(=O)N1CCN(c2c(Br)cnc3[nH]c(-c4ccc(N(C)C)cc4)nc23)CC1` [Example 43, 4-(6-Bromo-2-(4-(dimethylamino)phenyl)-3H-imidazo[4,5-b]pyridin-7-yl)-N-ethylpiperazine-1-carboxamide], the IC50 is less than 500 nM.

`COc1ccc(-c2nc3c(N4CCN(Cc5nccs5)CC4)c(Br)cnc3[nH]2)cc1` [Example 151, 2-((4-(6-Bromo-2-(4-methoxyphenyl)-3H-imidazo[4,5-b]pyridin-7-yl)piperazin-1-yl)methyl)thiazole]: the IC50 is less than 500 nM.

In the case of `CN(C)c1ccc(-c2nc3c(N4CCN(CCOc5ccccc5)CC4)c(Cl)cnc3[nH]2)cc1` [Example 9, (4-{6-Chloro-7-[4-(2-phenoxy-ethyl)-piperazin-1-yl]-3H-imidazo[4,5-b]pyridin-2-yl}-phenyl)-dimethyl-amine], the IC50 is less than 500 nM.

For `COc1ncccc1-c1nc2c(N3CCN(Cc4cccnc4)CC3)c(Br)cnc2[nH]1` [Example 55, 6-Bromo-2-(2-methoxypyridin-3-yl)-7-(4-(pyridin-3-ylmethyl)piperazin-1-yl)-3H-imidazo[4,5-b]pyridine], the IC50 was in the range of 500 to 2000 nM.

On to `CC(C)(C)OC(=O)NCc1ccc(-c2nc3c(N4CCN(CC(=O)Nc5nccs5)CC4)c(Br)cnc3[nH]2)cc1` [Example 6, (4-{6-Bromo-7-[4-(thiazol-2-ylcarbamoylmethyl)-piperazin-1-yl]-3H-imidazo[4,5-b]pyridin-2-yl}-benzyl)-carbamic acid tert-butyl ester], for which the IC50 was in the range of 500 to 2000 nM.

Consider `Cc1nc(CN2CCN(c3c(Br)cnc4[nH]c(-c5ccc(CN6CCN(C(=O)OC(C)(C)C)CC6)cc5)nc34)CC2)cs1` [Example 157, tert-Butyl 4-(4-(6-bromo-7-(4-((2-methylthiazol-4-yl)methyl)piperazin-1-yl)-3H-imidazo[4,5-b]pyridin-2-yl)benzyl)piperazine-1-carboxylate], for which the IC50 is less than 500 nM.

On to `Cc1nc(CN2CCN(c3c(Br)cnc4[nH]c(-c5ccc(N6CCN(C(=O)OC(C)(C)C)CC6)cc5)nc34)CC2)cs1` [Example 158, tert-Butyl 4-(4-(6-bromo-7-(4-((2-methylthiazol-4-yl)methyl)piperazin-1-yl)-3H-imidazo[4,5-b]pyridin-2-yl)phenyl)piperazine-1-carboxylate], for which the IC50 was less than 500 nM.

As for `CC(C)(C)OC(=O)N1CCN(c2ccc(-c3nc4c(N5CCN(Cc6cccnc6)CC5)c(Br)cnc4[nH]3)cc2)CC1` [Example 103, tert-Butyl 4-(4-(6-bromo-7-(4-(pyridin-3-ylmethyl)piperazin-1-yl)-3H-imidazo[4,5-b]pyridin-2-yl)phenyl)piperazine-1-carboxylate], the IC50 is less than 500 nM.

For `CN(C)c1ccc(-c2nc3c(N4CCNCC4)c(Br)cnc3[nH]2)cc1` [Example 15, [4-(6-Bromo-7-piperazin-1-yl-3H-imidazo[4,5-b]pyridin-2-yl)-phenyl]-dimethyl-amine], the IC50 is less than 500 nM.

Consider `CN(C)c1ccc(-c2nc3c(N4CCN(CCNC(=O)Nc5ccccc5)CC4)c(Br)cnc3[nH]2)cc1` [Example 41, 1-(2-(4-(6-Bromo-2-(4-(dimethylamino)phenyl)-3H-imidazo[4,5-b]pyridin-7-yl)piperazin-1-yl)ethyl)-3-phenylurea], for which the IC50 is less than 500 nM.

Turning to `COc1ccc(-c2nc3c(N4CCN(Cc5csc(C(C)C)n5)CC4)c(Br)cnc3[nH]2)cc1` [Example 153, 4-((4-(6-Bromo-2-(4-methoxyphenyl)-3H-imidazo[4,5-b]pyridin-7-yl)piperazin-1-yl)methyl)-2-isopropylthiazole], the IC50 was less than 500 nM.

With `CN(C)c1ccc(-c2nc3c(N4CCN(c5ccccc5)CC4)c(Br)cnc3[nH]2)cc1` [Example 48, 4-(6-Bromo-7-(4-phenylpiperazin-1-yl)-3H-imidazo[4,5-b]pyridin-2-yl)-N,N-dimethylaniline], the IC50 was less than 500 nM.

`CC(C)(C)OC(=O)NCc1cccc(-c2nc3c(N4CCN(Cc5cccnc5)CC4)c(Br)cnc3[nH]2)c1` [Example 91, tert-Butyl 3-(6-bromo-7-(4-(pyridin-3-ylmethyl)piperazin-1-yl)-3H-imidazo[4,5-b]pyridin-2-yl)benzylcarbamate]: the IC50 is less than 500 nM.

With `FC(F)(F)c1ccc(CN2CCN(c3c(Br)cnc4[nH]c(-c5ccc(N6CCOCC6)cc5)nc34)CC2)cn1` [Example 126, 4-(4-(6-Bromo-7-(4-((6-(trifluoromethyl)pyridin-3-yl)methyl)piperazin-1-yl)-3H-imidazo[4,5-b]pyridin-2-yl)phenyl)morpholine], the IC50 is less than 500 nM.

The subject of a further assay is HCT116 cells. Put plainly: Cell viability assay (MTT) in HCT116 cell line. It is filed as cell-based. Conditions: Homo sapiens, HCT-116, 72 hrs, IC50 range, read-out: HCT116 cell growth inhibition. The protocol: Cell Viability Assay: Determination of IC50 of Aurora Inhibitors in HCT116 Cell Line Using MTT Assay. The effects of compounds of the Examples on cellular proliferation were determined using the MTT assay according to manufacturer's instructions (Sigma). Briefly, the human colon tumour cells HCT116, were seeded in triplicate into 96-well plates at 2500 cells/well 24 hours before treatment with a range of concentrations of Aurora inhibitors (0-50 μM). After 72 hrs, 15 μl/well of 0.5% 3-(4,5-dimethylthiazol-2-yl)-2,5-diphenyltetrazolium bromide (MTT) was added to the cells for 4 hrs at 37° C., the dye-stained viable cells were extracted by adding 150 μl/well of dimethyl sulphoxide (DMSO). […] The IC50 was calculated using the Prism software.
`Clc1cnc2[nH]c(-c3ccc(CN4CCOCC4)cc3)nc2c1N1CCN(Cc2cscn2)CC1` [Example 177, 4-(4-(6-Chloro-7-(4-(thiazol-4-ylmethyl)piperazin-1-yl)-3H-imidazo[4,5-b]pyridin-2-yl)benzyl)morpholine]: the IC50 is 500 to 2000 nM.

In the case of `COc1ccc(-c2nc3c(N4CCN(CC5CCC5)CC4)c(Br)cnc3[nH]2)cc1` [Example 149, 6-Bromo-7-(4-(cyclobutylmethyl)piperazin-1-yl)-2-(4-methoxyphenyl)-3H-imidazo[4,5-b]pyridine], the IC50 is less than 500 nM.

Turning to `Brc1cnc2[nH]c(-c3cccc(CN4CCOCC4)c3)nc2c1N1CCN(Cc2cccnc2)CC1` [Example 66, 6-Bromo-2-(3-morpholin-4-ylmethyl-phenyl)-7-(4-pyridin-3-ylmethyl-piperazin-1-yl)-3H-imidazo[4,5-b]pyridine], the IC50 is less than 500 nM.

In the case of `Brc1cnc2[nH]c(-c3ccc(CN4CCOCC4)cc3)nc2c1N1CCN(Cc2ccncc2)CC1` [Example 68, 6-Bromo-2-(4-morpholin-4-ylmethyl-phenyl)-7-(4-pyridin-4-ylmethyl-piperazin-1-yl)-3H-imidazo[4,5-b]pyridine], the IC50 is less than 500 nM.
